# Assay results: patent US20260376311A1, “Subject selection for 11B-HSD1 inhibitor treatment” (ACTINOGEN MEDICAL LIMITED, priority 2022, published 2026)
# How the values were obtained:
# [1] = Clinical Dementia Rating Scale-Sum of Boxes (CDR-SB), Phase II placebo-controlled study, Biomarker Extension Study; type: in vivo, human; settings: 12 weeks
# Description: (§1) A Phase II, Double-Blind, 12-Week, Randomised, Placebo-Controlled Study was conducted to Assess the Safety, Tolerability and Efficacy of Xanamem™ in Subjects with Mild Dementia due to Alzheimer's Disease (AD).
# (§2) Study Design: This is a Phase II, randomized, multi-centre, double-blind, placebo-controlled, proof-of-concept study to assess the safety, tolerability and efficacy of oral Xanamem™ QD in adult subjects with mild dementia due to AD.
# (§3) At the Baseline visit (Week 0), eligible subjects will be randomised on a 1:1 ratio to receive either 10 mg Xanamem™ administered orally, QD (treatment group) or matching placebo (placebo group). Subjects returned to the study site for the Interim visits (Week 4 and Week 8), EOT (Week 12) and Follow-up (4 weeks post last dose of study drug) visits, at which study assessments were performed.
# (§4) Xanamem™ is formulated in green and cream-coloured size 3, Coni-Snap shaped gelatin capsules as an excipient blend at a dose of 10 mg (see Table 1). The dose of Xanamen™ will be 10 mg administered orally, QD.
# The Washington University CDR is a global assessment instrument that yields global and SOB scores, with the global score regularly used in clinical and research settings to stage dementia severity. The CDR-SOB score has been considered a more detailed quantitative general index than the global score and provides more information than the global CDR score in participants with mild dementia. CDR Global results are relevant for subject eligibility and thus will also be performed at the Screening visit.
# The CDR is obtained through semi-structured interviews of patients and informants, and cognitive functioning is rated in six domains of functioning: memory, orientation, judgement and problem solving, community affairs, home and hobbies, and personal care. Each domain is rated on a five-point scale of functioning as follows: 0, no impairment; 0.5, questionable impairment; 1, mild impairment; 2, moderate impairment; and 3, severe impairment.
# The global CDR score is computed via an algorithm. CDR Global score is calculated using the Washington University online algorithm. The CDR-SOB is based on summing each of the domain box scores, with scores ranging from 0-18.
# (§5) A Non-interventional Biomarker Analysis Extension Protocol study was conducted for Participants who were previously enrolled in the above described Phase II, Double-Blind, 12-Week, Randomised, Placebo-Controlled Study to Assess the Safety, Tolerability and Efficacy of Xanamem™ in Subjects with Mild Dementia due to Alzheimer's Disease (AD). The objectives for study were: • 1. To analyze the levels of biomarkers of Alzheimer's Disease (AD) proteins, neurodegeneration, and neuro-inflammation in stored plasma samples from participants with mild dementia due to AD enrolled in the previous clinical trial (at baseline and Week 12 and their change from baseline for each treatment) • 2. To examine the change from baseline in biomarkers by treatment group to Week 12 by baseline pTau181 quartile categorization/level • 3. To explore the efficacy of Xanamem in relationship to quartiles categorization/level of pTau181 levels at baseline • 4. To correlate the changes from baseline in biomarkers by treatment with changes in cognitive endpoints
# From above described clinical study, the extant blood samples of 72 patients were subjected to further disease biomarker analysis. A biomarker laboratory (blinded to treatment assignment), analyzed those blood samples to determine the biomarker variable pTau181. […]
# [2] = Safety of drug intake when fasted; type: in vivo, human; settings: oral, in words
# [3] = Pharmacokinetics of Xanamem (Phase I peak concentrations; fed/fasted bioavailability); type: in vivo, human; settings: oral; with meals vs fasted; in words
# [4] = Mini-Mental Status Examination (MMSE), Phase II placebo-controlled study, Biomarker Extension Study; type: in vivo, human
# Description: as §1, §2, §3, §4
# The MMSE is a 30-point questionnaire that is used extensively in clinical and research settings to measure cognitive impairment and is commonly used in medicine and allied health to screen for dementia. It is also used to estimate the severity and progression of cognitive impairment and to follow the course of cognitive changes in an individual over time; thus making it an effective way to document a participant's response to treatment. For this study, MMSE results are relevant for subject eligibility and performed at Screening visit.
# as §5
# (§6) From above described clinical study, the extant blood samples of 72 patients were subjected to further disease biomarker analysis. A biomarker laboratory (blinded to treatment assignment), analyzed those blood samples to determine the biomarker variable pTau181.
# An analysis of overall efficacy was undertaken of the population (n=72).
# (§7) For the cognitive efficacy variables (CDR-SB and MMSE), change from baseline to Week 12 was analyzed by ANCOVA with the following models: • treatment as fixed effect and baseline cognitive efficacy value as covariate; • treatment, baseline p-Tau181 (low/high) category, and treatment-by-baseline p-Tau181 (low/high) category as fixed effects, and baseline cognitive efficacy value as covariate; • treatment, baseline p-Tau181 (≤10.2 pg/mL/>10.2 pg/mL) category, and treatment-by-baseline p-Tau181 (≤10.2 pg/mL/>10.2 pg/mL) category as fixed effects, and baseline cognitive efficacy value as covariate; and • treatment, baseline MMSE (less severe (≥24)/more severe (≤23)) category, and treatment-by-baseline MMSE (less severe (≥24)/more severe (≤23)) category as fixed effects, and baseline cognitive efficacy value as covariate.
# [5] = test system: pTau181; assay: Biomarker analysis of plasma pTau181, Biomarker Extension Study; type: in vivo, human; settings: 10 mg QD
# Description: as §5, §6
# as §7, with “biomarker p-Tau181,” for “cognitive efficacy variables (CDR-SB and MMSE),”, “were” for “was”, “biomarker” for “cognitive efficacy”
# [6] = comparison with Xanamem treatment effect; cited from earlier work
# [7] = 10 mg QD oral, pTau >6.74 pg/mL subgroup, N = 34
# [8] = 10 mg QD oral, pTau > 10.2 pg/mL, N = 9
# [9] = 10 mg QD oral, pTau ≤ 10.2 pg/mL, N = 59
# [10] = Xanamem vs placebo, pTau>6.74 pg/mL subgroup, 10 mg QD
# [11] = 10 mg QD oral, 12 weeks, baseline MMSE 20-23, N = 46
# [12] = 10 mg QD oral, 12 weeks, baseline MMSE 24-26, N = 26
# [13] = baseline to Week 12, sample size 28 and 26
compound,measurement,setting,value
"O=C(c1csc(-c2cn[nH]c2)c1)N1[C@@H]2CC[C@H]1C[C@](O)(c1ncccn1)C2 [Xanamem, (5-(1H-Pyrazol-4-yl)thiophen-3-yl)(3-hydroxy-3-(pyrimidin-2-yl)-8-azabicyclo[3.2.1]octan-8-yl)methanone]","CDR-SB change, pTau pg/mL > 10.2 (median)","[1]; 10 mg QD oral, N = 9, desired change down, placebo 0.5",−0.3
same,"CDR-SB change, pTau pg/mL > 10.2 (mean)","[1]; 10 mg QD oral, N = 9, desired change down, placebo 0.8",0.1
same,"CDR-SB change, pTau units ≤ 6.74 (median)","[1]; 10 mg QD oral, N = 34, desired change down, placebo 0.0",0.0
same,"CDR-SB change, pTau > 6.74 pg/mL (median)","[1]; 10 mg QD oral, N = 34, desired change down, placebo 0.8",0.0
same,"CDR-SB change, pTau > 6.74 pg/mL (mean)","[1]; 10 mg QD oral, N = 34, desired change down, placebo 1.0",0.4
same,"CDR-SB change, pTau units ≤ 6.74 (mean)","[1]; 10 mg QD oral, N = 34, desired change down, placebo −0.1",0.5
same,"CDR-SB change, pTau ≤ 10.2 pg/mL (median)","[1]; 10 mg QD oral, N = 59, desired change down, placebo 0.0",0.0
same,"CDR-SB change, pTau ≤ 10.2 pg/mL (mean)","[1]; 10 mg QD oral, N = 59, desired change down, placebo 0.4",0.5
same,"Cohen's d for CDR-SB (mean), Xanamem vs placebo",[1]; [7],0.41
same,"p value for CDR-SB (mean), Xanamem vs placebo",[1]; [7],0.09
same,"CDR-SB units (median), change","[1]; 10 mg QD oral, pTau >6.74 pg/mL subgroup, Xanamem n = 16, desired change down, placebo 0.8",0.0 CDR-SB units
same,"CDR-SB units (mean), change","[1]; 10 mg QD oral, pTau >6.74 pg/mL subgroup, Xanamem n = 16, desired change down, placebo 1.0",0.4 CDR-SB units
same,"Cohen's d for CDR-SB (mean), Xanamem vs placebo",[1]; [8],0.62
same,"p value for CDR-SB (mean), Xanamem vs placebo",[1]; [8],0.33
same,"Cohen's d for CDR-SB (mean), Xanamem vs placebo","[1]; 10 mg QD oral, pTau units ≤ 6.74, N = 34",0.40
same,"p value for CDR-SB (mean), Xanamem vs placebo","[1]; 10 mg QD oral, pTau ≤ 6.74 pg/mL, N = 34",0.08
same,"Cohen's d for CDR-SB (mean), Xanamem vs placebo",[1]; [9],−0.06
same,"p value for CDR-SB (mean), Xanamem vs placebo",[1]; [9],0.78
same,"treatment effect on CDR-SB, mean",[1]; [10],0.6 points
same,"treatment effect on CDR-SB, median",[1]; [10],0.8 points
same,safety of drug intake when fasted,[2],no safety concern
same,bioavailability in fed state,[3],higher bioavailability observed when taken in a fed state
same,"Cohen's d for MMSE (mean), Xanamem vs placebo",[4]; [11],0.93
same,"p value for MMSE (mean), Xanamem vs placebo",[4]; [11],0.02
same,"MMSE change, MMSE 20-23 (mean)","[4]; 10 mg QD oral, 12 weeks, baseline MMSE 20-23, N = 46, desired change up, placebo −0.3",1.7
same,"MMSE change, MMSE 20-23 (median)","[4]; 10 mg QD oral, 12 weeks, baseline MMSE 20-23, N = 46, desired change up, placebo −1.0",2.0
same,"Cohen's d for MMSE (mean), Xanamem vs placebo",[4]; [12],−0.17
same,"p value for MMSE (mean), Xanamem vs placebo",[4]; [12],0.88
same,"MMSE change, MMSE 24-26 (median)","[4]; 10 mg QD oral, 12 weeks, baseline MMSE 24-26, N = 26, desired change up, placebo −1.0",−1.0
same,"MMSE change, MMSE 24-26 (mean)","[4]; 10 mg QD oral, 12 weeks, baseline MMSE 24-26, N = 26, desired change up, placebo −1.4",−1.5
same,"Cohen's d for MMSE, Xanamem over placebo","[4]; overall population n=72, 10 mg QD",0.35
same,increase in the mean MMSE score,"[4]; overall population n=72, Xanamem n=37, 10 mg QD, placebo (n=35) decrease of 0.6",0.3
same,change in biomarker pTau181 from baseline to Week 12,"[5]; sample size 28 (Xanamem) and 26 (placebo), placebo −8.59",−2.37
same,treatment trend in change of pTau181,"[5]; baseline to Week 12, in words",no treatment trend was observed
same,"Cohen's d for change in pTau181, Xanamem vs placebo",[5]; [13],0.08
same,"p for change in pTau181, Xanamem vs placebo",[5]; [13],0.40
CC12CC3CC(C)(C1)CC(N)(C3)C2 [memantine],Cohen's d of approved oral anticholinesterases or memantine,[6],0.2-0.3
